Test results reported in patent publication US20070207544A1, “STROMA-FREE, SERUM-FREE, AND CHEMICALLY DEFINED MEDIUM AND METHOD FOR EX VIVO MONONUCLEAR CELL EXPANSION USING THE SAME” (FOOD INDUSTRY RESEARCH & DEVELOPMENT INSTITUTE, priority 2005, published 2007).

Columns and labels:
CD34^+ cells = test: Ex vivo expansion of UCB mononuclear cells: CD34^+ cell growth by flow cytometry; format: cell-based, human; conditions: for effect of serum substitute on CD34^+ cell growth: sign of coefficient in Eq. (3), IMDM + seven cytokines
Method: (§1) The term UCB was harvested with a standard 250-ml blood bag (Terumo, Shibuya-ku, Tokyo, Japan) with the informed consent and processed within 24 hrs. Buffy coat cells were obtained from UCB by centrifugation (700×g, 20 mins), and were diluted with an equal volume of wash buffer (Dulbecco's phosphate buffered saline, D-PBS, containing 2 mM EDTA, Sigma, St. Louis, Mo.). Then the cells were layered onto Ficoll-Paque solution (ρ=1.077 g/ml, Amersham Biosciences, Uppsala, Sweden) and centrifuged to deplete red blood cells, platelets and plasma (700×g, 40 mins). MNCs were collected, and washed with D-PBS twice. Recovery rate, viability, percentage of CD34^+ fraction, colony-forming cells (CFCs), and long-term culture-initiating cells (LTC-ICs) were determined as day 0 for control. For expansion, MNC were seeded at a concentration of 5×10^5 cells/ml in 24-well plates with variable serum substitutes and cytokines according to experiment design (all experiments were repeated at least six times).
(§2) Two-level factorial design followed the method of steepest ascent was carried out to find the optimal concentrations of serum substitutes and cytokines for CD34^+ cells expansion. Fractional and full factorial design data were regressed by SPSS software to obtain the first order polynomial. Its statistic significance was determined by an F-test and the significance of the regression coefficients was analyzed by a t-test. The polynomial takes the form of White blood cells (WBCs)/ml or CD34^+ cells/ml=α0+αixi (1)
(§3) As has been extensively reviewed [Sandstrom C E, et al. Biotechnol Bioeng. 1994; 43:706-733; Mobest D, et al. Biotechnol Bioeng. 1998; 60:341-347; Bruyn C D, et al. Cytotherapy. 2003; 5:153-160] and based on the inventors' previous experience [Lebkowski J S, et al. Stem Cells. 1995; 13:607-612; Audet J, et al. Biotechnol Bioeng. 2002; 80:393-404; Yao C L, et al. Enzyme Micro Technol. 2003; 33:343-352], four kinds of compounds that are frequently used as serum substitutes were selected—bovine serum albumin (BSA), insulin, transferring (TF), and 2-mercaptoethanol (2-ME). The 2^4 full factorial design was adopted to determine which serum substitutes were required for CD34^+ cell expansion in the MNC culture system. The 2^4 full factorial design could efficiently test four compounds with 16 trials and provide completely degrees of freedom to obtain the coefficients. […] 2003; 33:343-352]; the initial cell density was 5×10^5 MNCs/ml and the cells were analyzed after 7-day culture.
(§4) The 2^10-6 fractional factorial design (16 runs simultaneously) was adopted to identify which cytokines could help CD34^+ cell expansion in the MNC culture system. This design could efficiently test ten compounds with 16 trials and provide sufficient degrees of freedom to obtain the coefficients.

white blood cells (WBCs) = test: Ex vivo expansion of UCB mononuclear cells: WBC growth (cell density); format: cell-based, human; conditions: for effect of serum substitute on WBC growth: sign of coefficient in Eq. (2), IMDM + seven cytokines; for effect of cytokine on WBC growth: sign of coefficient in Eq. (4), IMDM + BIT
Method: as §1, §2, §3, §4

Compound	effect of serum substitute on CD34^+ cell growth (CD34^+ cells)	effect of serum substitute on WBC growth (white blood cells (WBCs))	effect of cytokine on WBC growth (white blood cells (WBCs))	effect of cytokine on CD34^+ cell growth (CD34^+ cells; sign of coefficient in Eq. (5), IMDM + BIT)
OCCS [2-ME, 2-mercaptoethanol, reference compound]	inhibit	inhibit		
HGF: recombinant human hepatocyte growth factor; x10 in Eq. (4), (5)			inhibit	
IL-6: recombinant human interleukin-6; x5 in Eq. (4), (5)			inhibit	positive effect
TF: transferrin, serum substitute; x3 in Eq. (2), (3)	enhance	enhance		
insulin: insulin, serum substitute; x2 in Eq. (2), (3)	enhance	enhance		
